Results from patent US20050282824A1, “Substituted pyrimidines as inhibitors of bacterial type III protein secretion systems” (priority 2004, published 2005).

Key:
Assay type in all cases: cell-based
[1] = tested on: SPI1 type III protein secretion of SipB by S. enterica; assay: Secondary assay: Type III-dependent protein secretion of the SipB polypeptide by S. enterica; details: Salmonella enterica, read-out: SipB IC50(uM)
Protocol: Secondary assay: Type III-dependent protein secretion of the SipB polypeptide by S. enterica. The SipB protein of S. enterica is another effector of the SPI1 type III protein secretion system from S. enterica. In this cell-based procedure, the Type III-dependent secretion of SipB from the bacterial cytoplasm to the extracellular medium was measured through its reactivity with a cognate mouse monoclonal.
Salmonella enterica cells growing either in the presence or in the absence of inhibitors are induced for the production of SipB. Following an established period of growth the cells are sedimented and the amount of SipB present in the supernatant is quantified with a scanning imager following application of immunoblot techniques. Detection may employ an anti-SipB mouse monoclonal antibody (e.g., obtained from Jorge Galan, SUNY at Stony Brook, N.Y.) followed by treatment with commercially available sheep anti-mouse polyclonal antibody conjugated with horseradish peroxidase. Thereafter the membrane is treated with a peroxidase chemiluminescent substrate and exposed to film for an appropriate exposure time. Inhibition may be measured relative to untreated controls.

[2] = tested on: Type III protein secretion of ExoU by P. aeruginosa PA103; assay: Tertiary assay: Type III-dependent secretion of ExoU by P. aeruginosa PA103; details: Pseudomonas aeruginosa, read-out: ExoU IC50(uM)
Text: Tertiary assay: inhibition of Type III protein secretion of effectors from a Pseudomonas aeruginosa system. Type III protein secretion is used by P. aeruginosa to secrete several essential virulence determinants. One effector of the type III protein secretion system of P. aeruginosa PA 103 is the virulence determinants ExoU.
The amount of Type III-dependent secretion of ExoU by P. aeruginosa PA103 can be determined in a cell-based assay by quantification of the 73.9 kDa ExoU protein secreted into the extracellular medium. Such quantitation can be achieved by growing strain PA 103 in a deferrated medium in the presence of nitrilotriacetic acid (an inducer of Type III protein secretion in P. aeruginosa) and either in the presence or absence of putative inhibitors. After a prolonged growth period, the cells are sedimented and the supernatants concentrated by ammonium sulfate precipitation. The proteins in the resuspended pellets are separated by electrophoresis on SDS-polyacrylamide gels. After staining gels with Colloidal Blue™, the 73.9 kDa ExoU band is quantitated by scanning through an imager. The effects of inhibitors on the intensity of the ExoU band may be measured relative to that of untreated controls.

[3] = tested on: SPI1 type III protein secretion of SopE'-'Bla by Salmonella enterica; assay: Primary assay: Type III protein secretion of the chimeric SopE'-'Bla polypeptide by Salmonella enterica; details: read-out: SopE IC50(uM)
Text: Primary assay: Type III protein secretion of the chimeric SopE′-′Bla polypeptide by Salmonella enterica. This procedure is a cell-based assay that measures the type III-dependent secretion by Salmonella enterica of a plasmid-encoded chimeric polypeptide whose synthesis can be regulated, and which is endowed with an enzymatic activity that can be monitored […] by hydrolysis of a substrate that is unable to penetrate into the bacterial cytoplasm within the time constraints of the reaction. Thus, the colorimetric reaction is not influenced by SopE′-′Bla polypeptide in the bacterial cytoplasm. Instead, it effectively measures the amount of polypeptide that has been secreted from the S. enterica cytoplasm to the extracellular medium via type III system protein secretion.
The SopE′-′Bla recombinant polypeptide consists of two functionally distinct domains spliced together. The N-terminus domain is encoded by a polynucleotide region specifying the signal for type III secretion of the SopE polypeptide of S. enterica, an effector of the SPI1 type III protein secretion system. The C-terminus domain of SopE′-′Bla consists of a 263 amino acid peptide sequence that corresponds to the TEM-1 β-lactamase expressed by plasmid pBR322 but without its N-terminal signal sequence. The TEM-1 β-lactamase part of the SopE′-′Bla chimeric polypeptide is used as a reporter enzyme. It is capable of hydrolyzing nitrocefin resulting in a product whose accumulation can be monitored by colorimetric detection. The secretion of the SopE′-′Bla chimeric polypeptide from the cytoplasm to the extracellular medium is dependent on type III protein secretion.
For this procedure, cells grown under conditions known to favor a functional SPI1 secretion system are induced for expression of the SopE′-′Bla protein and grown either in the presence or in the absence of putative inhibitors for determined time. Nitrocefin is then added to the various cultures and its hydrolysis are used for quantitation. An inhibitor of Type III protein secretion is generally a compound that reduces the signal of the enzymatic reaction by decreasing the amount of SopE′-′Bla secreted into the extracellular medium.

SMILES	IC50 [1]	IC50 [2]	IC50 [3]
Cc1cc(C(=O)NC(Cc2ccc(Cl)cc2)C(=O)O)nc(-c2ccc(-c3ccccc3)cc2)n1 (stereo not drawn) [Compound 1, 2-[(2-Biphenyl-4-yl-6-methyl-pyrimidine-4-carbonyl)amino]-3-(4-chlorophenyl)-propionic acid]	4.4 µM	83.9 µM	7.4 µM
O=C(N[C@@H](CSCc1ccccc1)C(=O)O)c1cc(N2CCCCC2)nc(-c2ccc(-c3ccccc3)cc2)n1 [Compound 3, (R)-3-Benzylsulfanyl-2-[(2-biphenyl-4-yl-6-piperidin-1-yl-pyrimidine-4-carbonyl)-amino]propionic acid]	3 µM	37.6 µM	4.1 µM
O=C(N[C@H](Cc1ccc(Cl)cc1)C(=O)O)c1cc(N2CCCCC2)nc(N2CCC(c3ccccc3)CC2)n1 [Compound 4, (R)-3-(4-Chlorophenyl)-2-{[2-(4-phenylpiperidin-1-yl)-6-piperidin-1-yl-pyrimidine-4-carbonyl]amino}propionic acid]	27 µM	> 100 µM	2 µM
CN(C)c1ccc(-c2nc(C(=O)N[C@H](Cc3ccc(Cl)cc3)C(=O)O)cc(N3CCc4ccccc4C3)n2)cc1 [Compound 6, (R)-3-(4-Chlorophenyl)-2-{[6-(3,4-dihydro-1H-isoquinolin-2-yl)-2-(4-dimethylaminophenyl)pyrimidine-4-carbonyl]amino}propionic acid]	50 µM	68.4 µM	4.5 µM
O=C(N[C@H](COCc1ccccc1)C(=O)O)c1cc(N2CCC(c3ccccc3)CC2)nc(-c2ccc(Cl)c(Cl)c2)n1 [Compound 11, (R)-3-Benzyloxy-2-{[2-(3,4-dichlorophenyl)-6-(4-phenylpiperidin-1-yl)-pyrimidine-4-carbonyl]amino}propionic acid]	44.2 µM	92.2 µM	1.4 µM
O=C(N[C@H](Cc1ccc(Cl)cc1)C(=O)O)c1cc(N2CCC(c3ccccc3)CC2)nc(-c2cccc(C(F)(F)F)c2)n1 [Compound 12, (R)-3-(4-Chlorophenyl)-2-{[6-(4-phenylpiperidin-1-yl)-2-(3-trifluoromethyl-phenyl)pyrimidine-4-carbonyl]amino}propionic acid]	28.1 µM	> 100 µM	1.4 µM
O=C(N[C@H](Cc1ccc(Cl)cc1)C(=O)O)c1cc(N2CCCc3ccccc32)nc(-c2cccc(C(F)(F)F)c2)n1 [Compound 13, (R)-3-(4-Chlorophenyl)-2-{[6-(3,4-dihydro-2H-quinolin-1-yl)-2-(3-trifluoromethyl-phenyl)pyrimidine-4-carbonyl]amino}propionic acid]	19.4 µM	> 100 µM	1.3 µM
CN(C)c1ccc(-c2nc(C(=O)N[C@H](Cc3ccc(Cl)cc3)C(=O)O)cc(N3CCC(c4ccccc4)CC3)n2)cc1 [Compound 14, (R)-3-(4-Chlorophenyl)-2-{[2-(4-dimethylaminophenyl)-6-(4-phenylpiperidin-1-yl)pyrimidine-4-carbonyl]amino}propionic acid]	27.6 µM	> 100 µM	1.8 µM
O=C(N[C@H](Cc1ccc(Cl)cc1)C(=O)O)c1cc(N2CCC(c3ccccc3)CC2)nc(-c2ccc(C(F)(F)F)cc2)n1 [Compound 15, (R)-3-(4-Chlorophenyl)-2-{[6-(4-phenylpiperidin-1-yl)-2-(4-trifluoromethylphenyl)-pyrimidine-4-carbonyl]amino}propionic acid]	8.5 µM	68.1 µM	3.6 µM
O=C(N[C@H](Cc1ccc(Cl)cc1)C(=O)O)c1cc(N2CCCc3ccccc32)nc(-c2ccc(Oc3ccccc3)cc2)n1 [Compound 16, (R)-3-(4-Chlorophenyl)-2-{[6-(3,4-dihydro-2H-quinolin-1-yl)-2-(4-phenoxy-phenyl)pyrimidine-4-carbonyl]amino}propionic acid]	10.2 µM	62.2 µM	6.2 µM
O=C(N[C@@H](CSCc1ccccc1)C(=O)O)c1cc(N2CCC(c3ccc(F)cc3)CC2)nc(-c2ccc(Cl)c(Cl)c2)n1 [Compound 17, (R)-3-Benzylsulfanyl-2-({2-(3,4-dichlorophenyl)-6-[4-(4-fluorophenyl)piperidin-1-yl]pyrimidine-4-carbonyl}amino)propionic acid]	23 µM	> 100 µM	1.6 µM
O=C(N[C@@H](CSCc1ccccc1)C(=O)O)c1cc(N2CCC(c3ccccc3)CC2)nc(-c2ccc(F)c(F)c2)n1 [Compound 18, (R)-3-Benzylsulfanyl-2-{[2-(3,4-difluorophenyl)-6-(4-phenylpiperidin-1-yl)-pyrimidine-4-carbonyl]amino}propionic acid]	16.8 µM	46.6 µM	19 µM
O=C(N[C@@H](CSCc1ccccc1)C(=O)O)c1cc(N2CCN(c3ccccc3)CC2)nc(-c2ccc(F)c(F)c2)n1 [Compound 19, (R)-3-Benzylsulfanyl-2-{[2-(3,4-difluorophenyl)-6-(4-phenyl-piperazin-1-yl)-pyrimidine-4-carbonyl]amino}propionic acid]	8 µM	67.8 µM	6.4 µM
O=C(N[C@@H](CSCc1ccccc1)C(=O)O)c1cc(N2CCC(c3ccccc3)CC2)nc(-c2ccc(C(F)(F)F)cc2)n1 [Compound 21, (R)-3-Benzylsulfanyl-2-{[6-(4-phenylpiperidin-1-yl)-2-(4-trifluoromethylphenyl)-pyrimidine-4-carbonyl]amino}propionic acid]	24.8 µM	39 µM	3.6 µM
O=C(N[C@@H](CSCc1ccccc1)C(=O)O)c1cc(N2CCC(c3ccc(F)cc3)CC2)nc(-c2ccc(C(F)(F)F)cc2)n1 [Compound 22, (R)-3-Benzylsulfanyl-2-{[6-[4-(4-fluorophenyl)piperidin-1-yl]-2-(4-trifluoromethylphenyl)pyrimidine-4-carbonyl]amino}propionic acid]	> 100 µM	52.6 µM	1.8 µM
O=C(N[C@@H](CSCc1ccccc1)C(=O)O)c1cc(N2CCN(c3ccccc3)CC2)nc(-c2ccc(C(F)(F)F)cc2)n1 [Compound 23, (R)-3-Benzylsulfanyl-2-{[6-(4-phenyl-piperazin-1-yl)-2-(4-trifluoromethylphenyl)-pyrimidine-4-carbonyl]amino}propionic acid]	31.7 µM	73 µM	3.3 µM
O=C(N[C@@H](CSCc1ccccc1)C(=O)O)c1cc(N2CCN(c3ccccc3)CC2)nc(-c2ccc(Cl)cc2)n1 [Compound 24, (R)-3-Benzylsulfanyl-2-{[2-(4-chlorophenyl)-6-(4-phenyl-piperazin-1-yl)-pyrimidine-4-carbonyl]amino}propionic acid]	39.2 µM	46.9 µM	5.45 µM
N#Cc1ccc(-c2nc(C(=O)N[C@@H](CSCc3ccccc3)C(=O)O)cc(N3CCN(c4ccccc4)CC3)n2)cc1 [Compound 25, (R)-3-Benzylsulfanyl-2-{[2-(4-cyanophenyl)-6-(4-phenyl-piperazin-1-yl)-pyrimidine-4-carbonyl]amino}propionic acid]	51.9 µM	57.2 µM	6.5 µM
